Source: the supplement of paper PMC10307832

Experiments:
Assay in all cases: relative viability (nuclei count vs DMSO), 5 days (fraction); higher = more cells survive
[1] = compound: C1=CC2=NC=CN=C2C=C1/C=C/3\C(=O)NC(=O)S3 + CC(=O)c1c(C)c2cnc(Nc3ccc(N4CCNCC4)cn3)nc2n(C2CCCC2)c1=O [Palbociclib] (partner 0.5 µM)
Outline: (§1)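 Nuclei were stained with Hoechst during a one-step fixation (final 0.05% Triton X-100, 1% formaldehyde, 1 ug/ml Hoechst) carried out 5 days after dosing, then counted on 4× images. The cells, lung cancer lines in 1536-well plates, had been dosed by pin tool the day after seeding with one drug alone or a fixed anchor-drug dose plus five library-drug doses (not always all listed) in √10 steps. Relative viability is the nuclei count in treated wells divided by that in vehicle wells, and each value is the median of duplicate plates.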

[2] = compound: C1=CC2=NC=CN=C2C=C1/C=C/3\C(=O)NC(=O)S3 + CC1(C)CCC(c2ccc(Cl)cc2)=C(CN2CCN(c3ccc(C(=O)NS(=O)(=O)c4ccc(N[C@H](CCN5CCOCC5)CSc5ccccc5)c(S(=O)(=O)C(F)(F)F)c4)cc3)CC2)C1 [Navitoclax] (partner 0.5 µM)
Outline: as §1

[3] = compound: CCN1CCN(c2ccc(Nc3cc(N(C)C(=O)Nc4c(Cl)c(OC)cc(OC)c4Cl)ncn3)cc2)CC1 [BGJ398] + C[C@@H](Oc1cc(-c2cnn(C3CCNCC3)c2)cnc1N)c1c(Cl)ccc(F)c1Cl [Crizotinib] (partner 1 µM)
Outline: as §1

[4] = compound: CCN1CCN(c2ccc(Nc3cc(N(C)C(=O)Nc4c(Cl)c(OC)cc(OC)c4Cl)ncn3)cc2)CC1 [BGJ398] + C[C@]1(O)C[C@@H](c2nc(-c3ccc4ccc(-c5ccccc5)nc4c3)c3c(N)nccn32)C1 [Linsitinib] (partner 1 µM)
Outline: as §1

Row | Cell Line | relative viability ([1]; first compound 0.02 µM) | relative viability ([1]; first compound 0.06325 µM) | relative viability ([1]; first compound 0.2 µM) | relative viability ([1]; first compound 0.6325 µM) | relative viability ([1]; first compound 2 µM) | relative viability ([2]; first compound 0.02 µM) | relative viability ([2]; first compound 0.06325 µM) | relative viability ([2]; first compound 0.2 µM) | relative viability ([2]; first compound 0.6325 µM) | relative viability ([2]; first compound 2 µM) | relative viability ([3]; first compound 0.01 µM) | relative viability ([3]; first compound 0.03162 µM) | relative viability ([3]; first compound 0.1 µM) | relative viability ([3]; first compound 0.3162 µM) | relative viability ([3]; first compound 1 µM) | relative viability ([4]; first compound 0.01 µM) | relative viability ([4]; first compound 0.03162 µM) | relative viability ([4]; first compound 0.1 µM) | relative viability ([4]; first compound 0.3162 µM) | relative viability ([4]; first compound 1 µM)
1 | NCI-H2085 | 0.494 | 0.436 | 0.485 | 0.448 | 0.46 | 1.09 | 0.975 | 1.17 | 1.13 | 1.08 | 0.836 | 0.871 | 1.05 | 0.892 | 1.01 | 0.872 | 0.943 | 0.975 | 1.01 | 0.934
2 | NCI-H2087 | 0.195 | 0.229 | 0.215 | 0.268 | 0.222 | 0.88 | 1.2 | 1.07 | 1.04 | 0.96 | 0.923 | 0.831 | 0.865 | 0.911 | 0.863 | 0.973 | 0.886 | 0.988 | 0.922 | 0.881
3 | NCI-H2126 | 0.329 | 0.404 | 0.358 | 0.369 | 0.339 | 0.739 | 0.909 | 0.914 | 0.842 | 0.727 | 1.12 | 1.01 | 0.997 | 0.955 | 1.05 | 0.688 | 0.692 | 0.713 | 0.739 | 0.746
4 | NCI-H2228 | 0.591 | 0.665 | 0.79 | 0.705 | 0.606 | 1.15 | 0.868 | 1.44 | 0.671 | 0.607 | 0.433 | 0.64 | 0.319 | 0.252 | 0.347 | 0.63 | 0.438 | 0.19 | 0.852 | 0.719
5 | NCI-H2347 | 0.456 | 0.382 | 0.415 | 0.443 | 0.429 | 0.756 | 0.443 | 0.904 | 0.863 | 0.734 | 0.593 | 0.878 | 0.728 | 0.962 | 0.698 | 0.989 | 1.08 | 0.975 | 0.968 | 1
6 | NCI-H2405 | 0.517 | 0.585 | 0.528 | 0.512 | 0.436 | 0.751 | 1.14 | 0.938 | 0.947 | 0.755 | 0.838 | 0.906 | 0.911 | 0.919 | 0.849 | 0.863 | 0.892 | 0.982 | 1.07 | 1.01
7 | NCI-H3122 | 0.204 | 0.213 | 0.173 | 0.194 | 0.186 | 1.06 | 0.997 | 0.973 | 1.01 | 1.08 | 0.229 | 0.271 | 0.282 | 0.295 | 0.272 | 1 | 1.06 | 0.997 | 1.05 | 1.02
8 | PC-3 [JPC-3] | 0.492 | 0.637 | 0.566 | 0.561 | 0.541 | 0.744 | 0.765 | 0.783 | 0.749 | 0.766 | 1.02 |  | 1.09 | 0.971 | 0.961 | 1.01 |  | 0.959 | 0.864 | 1.01
9 | PC-14 | 0.492 | 0.539 | 0.559 | 0.488 | 0.587 | 0.871 | 1 | 1 | 1 | 1.08 | 0.925 | 0.883 | 0.859 | 0.937 | 0.898 | 0.902 | 1.05 | 0.902 | 1 | 1.06
10 | RERF-LC-KJ | 1.04 | 1.12 | 1.05 | 0.994 | 1.15 | 0.69 | 0.897 | 1.01 | 0.863 | 0.826 | 0.807 | 0.928 | 0.852 | 0.871 | 0.788 | 0.863 | 0.894 | 0.901 | 0.865 | 0.945
11 | SK-LU-1 | 0.376 | 0.367 | 0.374 | 0.403 | 0.411 | 0.84 | 0.765 | 1.02 | 0.854 | 0.868 | 0.905 | 0.906 | 1.01 | 0.926 | 0.787 | 1.1 | 1.01 | 1.2 | 1.15 | 1.21
12 | SK-MES-1 | 0.328 | 0.305 | 0.344 | 0.338 | 0.313 |  | 1.4 | 1.3 | 1.21 | 1.23 | 0.944 | 1.05 | 1 | 0.942 | 0.967 | 1.01 | 1.12 | 1.09 | 1.01 | 1.11
13 | SW 1573 | 0.464 | 0.56 | 0.346 | 0.309 | 0.33 | 0.879 | 1.05 | 1.05 | 0.866 | 0.945 | 0.878 | 0.802 | 0.773 | 0.808 | 0.767 | 0.859 | 0.894 | 0.886 | 0.812 | 0.933
